Measured values reported in US10869871B2, “Compositions and methods of modulating short-chain dehydrogenase activity” (CASE WESTERN RESERVE UNIVERSITY, priority 2013, dated 2020).

How the values were obtained:
[1] = 21 day toxicity study in FVB mice (daily weights); assay type: in vivo, mouse; settings: 5 mg/kg IP twice daily for 21 days
[2] = Survival of mice after whole body irradiation; assay type: in vivo, mouse
[3] = system: 15-PGDH protein; assay: Western blot of 15-PGDH protein levels in treated cell lines; assay type: cell-based; settings: […] compound for 48 hours
[4] = system: 15-PGDH-luciferase fusion reporter in V9m, LS174T and V503 colon cancer cell lines; assay: 15-PGDH-luciferase fusion reporter induction in colon cancer cell lines; assay type: cell-based; settings: V9m, LS174T, V503; relative to DMSO
[5] = system: blood and bone marrow; assay: Blood and bone marrow recovery after transplant of 500,000 donor marrow cells; assay type: in vivo, mouse
[6] = system: cell culture; assay: Toxicity: concentration needed to decrease cell numbers in a cell culture assay; assay type: cell-based
Method: Time to inhibition refers to the time needed to inhibit the generation of NADH by 15-PGDH from the moment with drug is added into the reaction mix. Delta Tm refers to the shift in melting temperature of recombinant 15-PGDH in the presence of drug (with cofactor NADH also present). Concentration of Full Cell Line Reporter Induction refers to the concentration of drug that needs to be added to reporter cell line to achieve maximal induction of the 15-PGDH-luciferase gene fusion reporter cassette, as measured by luciferase assays. Hepatocyte stability refers to the half-life of compound in the presence of hepatocytes in culture. Toxicity refers to the concentration of compound needed to decrease cell numbers in a cell culture assay.

[7] = system: colon; assay: Dextran sodium sulfate (DSS) induced colitis in FVB mice; assay type: in vivo, mouse; settings: 22 days of study

Compound: CCCC[S+]([O-])c1sc2nc(-c3cccs3)cc(-c3ccccc3)c2c1N (stereo not drawn) [SW033291, 2-(butylsulfinyl)-4-phenyl-6-(thiophen-2-yl)thieno[2,3-b]pyridin-3-amine]
- mouse weight during treatment [1]: no evidence for SW033291 reducing mouse weight
- number of mice surviving ([2]; 7 Gy, 5 mg/kg IP daily for 7 doses, Day 0): 3
- number of mice surviving ([2]; 7 Gy, 5 mg/kg IP daily for 7 doses, Day 6): 3
- number of mice surviving ([2]; 7 Gy, 5 mg/kg IP daily for 7 doses, Day 7): 3
- number of mice surviving ([2]; 7 Gy, 5 mg/kg IP daily for 7 doses, Day 8): 3
- number of mice surviving ([2]; 7 Gy, 5 mg/kg IP daily for 7 doses, Day 9): 3
- number of mice surviving ([2]; 7 Gy, 5 mg/kg IP daily for 7 doses, Day 10): 3
- number of mice surviving ([2]; 7 Gy, 5 mg/kg IP daily for 7 doses, Day 11): 3
- number of mice surviving ([2]; 7 Gy, 5 mg/kg IP daily for 7 doses, Day 12): 3
- number of mice surviving ([2]; 7 Gy, 5 mg/kg IP daily for 7 doses, Day 13): 3
- number of mice surviving ([2]; 7 Gy, 5 mg/kg IP daily for 7 doses, Day 14): 3
- number of mice surviving ([2]; 7 Gy, 5 mg/kg IP daily for 7 doses, Day 15): 3
- appearance of mice ([2]; 7 Gy, 5 mg/kg IP daily for 7 doses, Day 25 (cell reads Looks Healthy)): Healthy
- number of mice surviving ([2]; 9 Gy, 5 mg/kg IP daily for 7 doses, Day 0): 3
- number of mice surviving ([2]; 9 Gy, 5 mg/kg IP daily for 7 doses, Day 6): 3
- number of mice surviving ([2]; 9 Gy, 5 mg/kg IP daily for 7 doses, Day 7): 3
- number of mice surviving ([2]; 9 Gy, 5 mg/kg IP daily for 7 doses, Day 8): 3
- number of mice surviving ([2]; 9 Gy, 5 mg/kg IP daily for 7 doses, Day 9): 3
- number of mice surviving ([2]; 9 Gy, 5 mg/kg IP daily for 7 doses, Day 10): 3
- number of mice surviving ([2]; 9 Gy, 5 mg/kg IP daily for 7 doses, Day 11): 3
- number of mice surviving ([2]; 9 Gy, 5 mg/kg IP daily for 7 doses, Day 12): 2
- number of mice surviving ([2]; 9 Gy, 5 mg/kg IP daily for 7 doses, Day 13): 2
- number of mice surviving ([2]; 9 Gy, 5 mg/kg IP daily for 7 doses, Day 14): 1
- number of mice surviving ([2]; 9 Gy, 5 mg/kg IP daily for 7 doses, Day 15): 0
- number of mice surviving ([2]; 11 Gy, 5 mg/kg IP 1 dose/daily for 7 days (Table 7), Day 0): 3
- number of mice surviving ([2]; 11 Gy, 5 mg/kg IP 1 dose/daily for 7 days (Table 7), Day 5): 3
- number of mice surviving ([2]; 11 Gy, 5 mg/kg IP 1 dose/daily for 7 days (Table 7), Day 6): 3
- number of mice surviving ([2]; 11 Gy, 5 mg/kg IP 1 dose/daily for 7 days (Table 7), Day 7): 3
- number of mice surviving ([2]; 11 Gy, 5 mg/kg IP 1 dose/daily for 7 days (Table 7), Day 8): 2
- number of mice surviving ([2]; 11 Gy, 5 mg/kg IP 1 dose/daily for 7 days (Table 7), Day 9): 1
- number of mice surviving ([2]; 11 Gy, 5 mg/kg IP 1 dose/daily for 7 days (Table 7), Day 10): 0
- number of mice surviving ([2]; 11 Gy, 5 mg/kg IP 1 dose/daily, continuous every day, Day 0): 3
- number of mice surviving ([2]; 11 Gy, 5 mg/kg IP 1 dose/daily, continuous every day, Day 5): 3
- number of mice surviving ([2]; 11 Gy, 5 mg/kg IP 1 dose/daily, continuous every day, Day 6): 3
- number of mice surviving ([2]; 11 Gy, 5 mg/kg IP 1 dose/daily, continuous every day, Day 7): 3
- number of mice surviving ([2]; 11 Gy, 5 mg/kg IP 1 dose/daily, continuous every day, Day 8): 3
- number of mice surviving ([2]; 11 Gy, 5 mg/kg IP 1 dose/daily, continuous every day, Day 9): 2
- number of mice surviving ([2]; 11 Gy, 5 mg/kg IP 1 dose/daily, continuous every day, Day 10): 0
- number of mice surviving ([2]; 11 Gy, 5 mg/kg IP 2 dose daily for 7 days, Day 0): 3
- number of mice surviving ([2]; 11 Gy, 5 mg/kg IP 2 dose daily for 7 days, Day 5): 3
- number of mice surviving ([2]; 11 Gy, 5 mg/kg IP 2 dose daily for 7 days, Day 6): 3
- number of mice surviving ([2]; 11 Gy, 5 mg/kg IP 2 dose daily for 7 days, Day 7): 3
- number of mice surviving ([2]; 11 Gy, 5 mg/kg IP 2 dose daily for 7 days, Day 8): 3
- number of mice surviving ([2]; 11 Gy, 5 mg/kg IP 2 dose daily for 7 days, Day 9): 2
- number of mice surviving ([2]; 11 Gy, 5 mg/kg IP 2 dose daily for 7 days, Day 10): 0
- longer survival versus vehicle ([2]; 11Gy, 5 mg/kg IP daily for 7 doses): 48 h
- number of mice surviving ([2]; 11 Gy, 5 mg/kg IP daily for 7 doses (Table 6), Day 0): 3
- number of mice surviving ([2]; 11 Gy, 5 mg/kg IP daily for 7 doses (Table 6), Day 5): 3
- number of mice surviving ([2]; 11 Gy, 5 mg/kg IP daily for 7 doses (Table 6), Day 6): 3
- number of mice surviving ([2]; 11 Gy, 5 mg/kg IP daily for 7 doses (Table 6), Day 7): 3
- number of mice surviving ([2]; 11 Gy, 5 mg/kg IP daily for 7 doses (Table 6), Day 8): 3
- number of mice surviving ([2]; 11 Gy, 5 mg/kg IP daily for 7 doses (Table 6), Day 9): 2
- number of mice surviving ([2]; 11 Gy, 5 mg/kg IP daily for 7 doses (Table 6), Day 10): 0
- longer survival on average versus vehicle ([2]; 11Gy, any of the 5 mg/kg dosing schedules): 1 to 2 days
- levels of 15-PGDH protein (western blot) [3]: increase levels of 15-PGDH protein
- luciferase activity of 15-PGDH luciferase fusion cells [4]: increase luciferase activity
- total platelet count versus control ([5]; day 5 after transplant): significantly higher total platelet count
- total white count versus control ([5]; day 5 after transplant): significantly higher total white count
- platelets ([5]; day 8 after transplant): 77,000
- neutrophils ([5]; day 12 after transplant): 332
- neutrophils ([5]; day 18 after transplant): 835
- Toxicity [6]: >10 µM
- change from baseline weight versus control [7]: greater weight at all time points
